# Assay results from patent US8314143B2, “Synthetic flavonoids and pharmaceutical compositions and therapeutic methods of treatment of HIV infection and other pathologies” (Florida A&M University, priority 2006, dated 2012).
# Values joined by “and” are separate entries in the source; they are usually repeats but may differ in a detail not shown here. Equal values may be shown once. Read-outs that look alike come from different tables or passages of the source.
# Key:
# Assay type in all cases: cell-based
# [1] = system: H-9 cells; assay: Cytoxicity on H-9 cells (drug inhibition, cell count); conditions: for H-9 Mean (drug inhibition): Table 4 summary; for % Inhibition Mean / Cells (×10^4) Mean / % Inhibition / Cells (×10^4): Exp. Dec. 05 to Dec. 09, 2005; for % Inhibition / Cells (×10^4): single replicates
# From the text: (§1) The purified and identified analogs were subjected to in vitro biological testing. […] These three congeners were further evaluated in H9 and PC3 cells. AZT was employed as a positive control in all of these experiments.
# [2] = system: MCF-7 cells; assay: Cytoxicity on MCF-7 cells (drug inhibition, cell count); design: Drug Inhibition on MCF-7 Cells / MCF-7 Mean (drug inhibition) / Drug inhibition on MCF-7 Cells Mean: unit not given here; conditions: for inhibition at 1 µg/mL / inhibition at 5 µg/mL / inhibition at 10 µg/mL / inhibition at 50 µg/mL: Homo sapiens, MCF7, MCF-7 cells; for Drug Inhibition on MCF-7 Cells: Table 8 summary
# From the text: as §1
# [3] = system: PC-3 cells; assay: Cytoxicity on PC-3 cells (drug inhibition, cell count); conditions: for Drug Inhibition on PC-3 cells: Table 7; for % Inhibition Mean / Cells (×10^4) Mean / % Inhibition / Cells (×10^4): Exp. Nov. 11 to Nov. 17, 2005; for % Inhibition / Cells (×10^4): single replicates
# From the text: The purified and identified analogs were subjected to in vitro biological testing.
# [4] = MCF-7 cells, drug 1 μg/ml, mean of replicates
# [5] = MCF-7 cells, drug 1 μg/ml, single replicate count
# [6] = MCF-7 cells, drug 1 μg/ml, single replicate, vs 2% DMSO
# [7] = MCF-7 cells, drug 5 μg/ml, mean of replicates
# [8] = MCF-7 cells, drug 5 μg/ml, single replicate count
# [9] = MCF-7 cells, drug 5 μg/ml, single replicate, vs 2% DMSO
# [10] = MCF-7 cells, drug 10 μg/ml, mean of replicates
# [11] = MCF-7 cells, drug 10 μg/ml, single replicate count
# [12] = MCF-7 cells, drug 10 μg/ml, single replicate, vs 2% DMSO
# [13] = MCF-7 cells, drug 50 μg/ml, mean of replicates
# [14] = MCF-7 cells, drug 50 μg/ml, single replicate count
# [15] = MCF-7 cells, drug 50 μg/ml, single replicate, vs 2% DMSO
# [16] = MCF-7 cells, 1 μg/ml, mean, Exp. Nov. 14 to Nov. 18, 2005
# [17] = MCF-7 cells, 1 μg/ml, single replicates, Exp. Nov. 14 to Nov. 18, 2005
# [18] = MCF-7 cells, 5 μg/ml, mean, Exp. Nov. 14 to Nov. 18, 2005
# [19] = MCF-7 cells, 5 μg/ml, single replicates, Exp. Nov. 14 to Nov. 18, 2005
# [20] = MCF-7 cells, 10 μg/ml, mean, Exp. Nov. 14 to Nov. 18, 2005
# [21] = MCF-7 cells, 10 μg/ml, single replicates, Exp. Nov. 14 to Nov. 18, 2005
# [22] = MCF-7 cells, 50 μg/ml, mean, Exp. Nov. 14 to Nov. 18, 2005
# [23] = MCF-7 cells, 50 μg/ml, single replicates, Exp. Nov. 14 to Nov. 18, 2005
compound,measurement,setting,value
COc1cc(C=CC(=O)c2cc(C)cc([N+](=O)[O-])c2O)cc(OC)c1OC [CHNM 3M],inhibitory activity compared to AZT,[1]; same conditions as AZT,much superior inhibitory activities
same,inhibition at 1 µg/mL,"[2]; drug 1 μg/ml, mean of replicates, vs 2% DMSO, read-out: % Inhibition Mean",12.6%
same,inhibition at 1 µg/mL,"[2]; drug 1 μg/ml, single replicate, vs 2% DMSO, read-out: % Inhibition",13.1%
same,inhibition at 5 µg/mL,"[2]; drug 5 μg/ml, mean of replicates, vs 2% DMSO, read-out: % Inhibition Mean",51.4%
same,inhibition at 5 µg/mL,"[2]; drug 5 μg/ml, single replicate, vs 2% DMSO, read-out: % Inhibition",49.4%
same,inhibition at 10 µg/mL,"[2]; drug 10 μg/ml, mean of replicates, vs 2% DMSO, read-out: % Inhibition Mean",90.3%
same,inhibition at 10 µg/mL,"[2]; drug 10 μg/ml, single replicate, vs 2% DMSO, read-out: % Inhibition",90.2%
same,inhibition at 50 µg/mL,"[2]; drug 50 μg/ml, mean of replicates, vs 2% DMSO, read-out: % Inhibition Mean",96.6%
same,inhibition at 50 µg/mL,"[2]; drug 50 μg/ml, single replicate, vs 2% DMSO, read-out: % Inhibition",96.6%
same,response to MCF-7 cells in the different drug concentrations,[2]; MCF-7 cells,good activities
same,Cells (×10^4) Mean,[2]; [4],44.50 ×10^4
same,Cells (×10^4),[2]; [5],44.3 ×10^4 (2×) and 45.0 ×10^4
same,% Inhibition,[2]; [6],11.62%
same,Cells (×10^4) Mean,[2]; [7],24.75 ×10^4
same,Cells (×10^4),[2]; [8],25.8 ×10^4 and 24.0 ×10^4 and 24.5 ×10^4
same,% Inhibition,[2]; [9],52.86% and 51.88%
same,Cells (×10^4) Mean,[2]; [10],4.92 ×10^4
same,Cells (×10^4),[2]; [11],5.0 ×10^4 (2×) and 4.8 ×10^4
same,% Inhibition,[2]; [12],90.67%
same,Cells (×10^4) Mean,[2]; [13],1.75 ×10^4
same,Cells (×10^4),[2]; [14],1.8 ×10^4 and 2.0 ×10^4 and 1.5 ×10^4
same,% Inhibition,[2]; [15],96.07% and 97.05%
same,inhibitory activity compared to AZT,"[2]; MCF-7 cells, same conditions as AZT",much superior inhibitory activities
same,inhibitory activity compared to AZT,[3]; same conditions as AZT,much superior inhibitory activities
COc1ccc(C=CC(=O)c2cc(C)cc([N+](=O)[O-])c2O)cc1OC [CHNM 2M],H-9 Mean (drug inhibition),[1]; 1 μg/ml,−15.75
same,% Inhibition Mean,[1]; 1 μg/ml,−15.75%
same,Cells (×10^4) Mean,[1]; 1 μg/ml,58.17 ×10^4
same,% Inhibition,[1]; 1 μg/ml,−13.93% and −19.90% and −13.43%
same,Cells (×10^4),[1]; 1 μg/ml,57.3 ×10^4 and 60.3 ×10^4 and 57.0 ×10^4
same,H-9 Mean (drug inhibition),[1]; 5 μg/ml,−16.58
same,% Inhibition Mean,[1]; 5 μg/ml,−16.58%
same,Cells (×10^4) Mean,[1]; 5 μg/ml,58.58 ×10^4
same,% Inhibition,[1]; 5 μg/ml,−22.39% and −10.45% and −16.92%
same,Cells (×10^4),[1]; 5 μg/ml,61.5 ×10^4 and 55.5 ×10^4 and 58.8 ×10^4
same,H-9 Mean (drug inhibition),[1]; 10 μg/ml,−1
same,% Inhibition Mean,[1]; 10 μg/ml,−1.00%
same,Cells (×10^4) Mean,[1]; 10 μg/ml,50.75 ×10^4
same,% Inhibition,[1]; 10 μg/ml,−0.50% and −3.98% and 1.49%
same,Cells (×10^4),[1]; 10 μg/ml,50.5 ×10^4 and 52.3 ×10^4 and 49.5 ×10^4
same,H-9 Mean (drug inhibition),[1]; 50 μg/ml,−11.44
same,% Inhibition Mean,[1]; 50 μg/ml,−11.44%
same,Cells (×10^4) Mean,[1]; 50 μg/ml,56.00 ×10^4
same,% Inhibition,[1]; 50 μg/ml,−12.94% and −8.96% and −12.44%
same,Cells (×10^4),[1]; 50 μg/ml,56.8 ×10^4 and 54.8 ×10^4 and 56.5 ×10^4
same,Drug Inhibition on MCF-7 Cells,"[2]; MCF-7 cells, 1 μg/ml",6.77
same,% Inhibition Mean,[2]; [16],6.77%
same,Cells (×10^4) Mean,[2]; [16],53.92 ×10^4
same,% Inhibition,[2]; [17],8.36% and 4.47% and 7.49%
same,Cells (×10^4),[2]; [17],53.0 ×10^4 and 55.3 ×10^4 and 53.5 ×10^4
same,Drug Inhibition on MCF-7 Cells,"[2]; MCF-7 cells, 5 μg/ml",20.17
same,% Inhibition Mean,[2]; [18],20.17%
same,Cells (×10^4) Mean,[2]; [18],46.17 ×10^4
same,% Inhibition,[2]; [19],21.33% and 22.19% and 17.00%
same,Cells (×10^4),[2]; [19],45.5 ×10^4 and 45.0 ×10^4 and 48.0 ×10^4
same,Drug Inhibition on MCF-7 Cells,"[2]; MCF-7 cells, 10 μg/ml",31.27
same,% Inhibition Mean,[2]; [20],31.27%
same,Cells (×10^4) Mean,[2]; [20],39.75 ×10^4
same,% Inhibition,[2]; [21],29.97% and 32.56% and 31.27%
same,Cells (×10^4),[2]; [21],40.5 ×10^4 and 39.0 ×10^4 and 39.8 ×10^4
same,Drug Inhibition on MCF-7 Cells,"[2]; MCF-7 cells, 50 μg/ml",42.07
same,% Inhibition Mean,[2]; [22],42.07%
same,Cells (×10^4) Mean,[2]; [22],33.50 ×10^4
same,% Inhibition,[2]; [23],43.80% and 40.35% and 42.07%
same,Cells (×10^4),[2]; [23],32.5 ×10^4 and 34.5 ×10^4 and 33.5 ×10^4
same,Drug Inhibition on PC-3 cells,[3]; 1 μg/ml,27.9
same,% Inhibition Mean,[3]; 1 μg/ml,9.10%
same,Cells (×10^4) Mean,[3]; 1 μg/ml,89.08 ×10^4
same,% Inhibition,[3]; 1 μg/ml,9.69% and 17.09% and 0.51%
same,Cells (×10^4),[3]; 1 μg/ml,88.5 ×10^4 and 81.3 ×10^4 and 97.5 ×10^4
same,Drug Inhibition on PC-3 cells,[3]; 5 μg/ml,39.36
same,% Inhibition Mean,[3]; 5 μg/ml,36.05%
same,Cells (×10^4) Mean,[3]; 5 μg/ml,62.67 ×10^4
same,% Inhibition,[3]; 5 μg/ml,39.29% and 36.99% and 31.89%
same,Cells (×10^4),[3]; 5 μg/ml,59.5 ×10^4 and 61.8 ×10^4 and 66.8 ×10^4
same,Drug Inhibition on PC-3 cells,[3]; 10 μg/ml,45.03
same,% Inhibition Mean,[3]; 10 μg/ml,35.80%
same,Cells (×10^4) Mean,[3]; 10 μg/ml,62.92 ×10^4
same,% Inhibition,[3]; 10 μg/ml,36.22% and 38.52% and 32.65%
same,Drug Inhibition on PC-3 cells,[3]; 50 μg/ml,59.67
same,% Inhibition Mean,[3]; 50 μg/ml,48.81%
same,Cells (×10^4) Mean,[3]; 50 μg/ml,50.17 ×10^4
same,% Inhibition,[3]; 50 μg/ml,49.23% and 46.43% and 50.77%
COc1cc(C=CC(=O)c2cc(Cl)cc(Cl)c2O)cc(OC)c1OC [CHCl 3M],Cells (×10^4) Mean,[2]; [4],53.17 ×10^4
same,% Inhibition Mean,"[2]; MCF-7 cells, drug 1 μg/ml, mean of replicates, vs 2% DMSO",−4.42%
same,Cells (×10^4),[2]; [5],54.0 ×10^4 and 54.3 ×10^4 and 51.3 ×10^4
same,% Inhibition,[2]; [6],−6.06% and −6.55% and −0.65%
same,Cells (×10^4) Mean,[2]; [7],52.75 ×10^4
same,% Inhibition Mean,"[2]; MCF-7 cells, drug 5 μg/ml, mean of replicates, vs 2% DMSO",−3.6%
same,Cells (×10^4),[2]; [8],53.8 ×10^4 and 51.5 ×10^4 and 50.0 ×10^4
same,% Inhibition,[2]; [9],−5.56% and −1.15% and −4.09%
same,Cells (×10^4) Mean,[2]; [10],43.75 ×10^4
same,% Inhibition Mean,"[2]; MCF-7 cells, drug 10 μg/ml, mean of replicates, vs 2% DMSO",14.08%
same,Cells (×10^4),[2]; [11],42.5 ×10^4 and 43.3 ×10^4 and 45.5 ×10^4
same,% Inhibition,[2]; [12],16.53% and 15.06% and 10.64%
same,Cells (×10^4) Mean,[2]; [13],31.50 ×10^4
same,% Inhibition Mean,"[2]; MCF-7 cells, drug 50 μg/ml, mean of replicates, vs 2% DMSO",38.13%
same,Cells (×10^4),[2]; [14],32.0 ×10^4 and 32.8 ×10^4 and 29.8 ×10^4
same,% Inhibition,[2]; [15],37.15% and 35.68% and 41.57%
